Data reported in patent publication US20230302018A1 (priority 2022, published 2023).

System: Male Wistar rats exposed to nitrogen mustard (NM)
Settings: rat, in vivo

## CC[C@H]1[C@@H](O)[C@@H]2[C@H](CC[C@]3(C)[C@@H]([C@H](C)CCC(=O)O)CC[C@@H]23)[C@@]2(C)CC[C@@H](O)C[C@@H]12 [OCA, 6α-ethyl-chenodeoxycholic acid]
  reduction in total collagen (hydroxyproline in tissue) compared to NM alone: 2 fold
